# Measured values: ChEMBL document CHEMBL1221370, “Steroidal saponins from fresh stems of Dracaena angustifolia” (J Nat Prod, 2010)
# The source made the active and inactive calls. The calls are words filed in the database; no cut-off is given here.
# Columns and labels:
# Format in all cases: functional, organism-based
# [1] = tested on: Cryptococcus neoformans; test: Antifungal activity against Cryptococcus neoformans ATCC 90113 by broth dilution method
# [2] = tested on: Candida albicans; test: Antifungal activity against Candida albicans ATCC 90028 by broth dilution method
# [3] = tested on: Nakaseomyces glabratus; test: Antifungal activity against Candida glabrata ATCC 90030 by broth dilution method
# [4] = tested on: Pichia kudriavzevii; test: Antifungal activity against Candida krusei ATCC 6258 by broth dilution method
# [5] = tested on: Aspergillus fumigatus; test: Antifungal activity against Aspergillus fumigatus ATCC 90906 by broth dilution method
Compound,Activity [1],Activity [2],Activity [3],Activity [4],Activity [5],IC50 [1] [µg/mL]
C=C1CC[C@@]2(OC1)OC1C[C@H]3[C@@H]4CC=C5C[C@@H](O)C[C@@H](O[C@@H]6OC[C@H](OS(=O)(=O)O)[C@H](O)[C@H]6O[C@@H]6O[C@@H](C)[C@H](O)[C@@H](O)[C@H]6O)[C@]5(C)[C@H]4CC[C@]3(C)[C@H]1[C@@H]2C (stereo partly specified),inactive,inactive,inactive,inactive,inactive,–
C[C@H]1CC[C@@]2(OC1)OC1C[C@H]3[C@@H]4CC=C5C[C@@H](O)C[C@@H](O[C@@H]6OC[C@H](O)[C@H](O)[C@H]6O[C@@H]6O[C@@H](C)[C@H](O)[C@@H](O)[C@H]6O)[C@]5(C)[C@H]4CC[C@]3(C)[C@H]1[C@@H]2C (stereo partly specified),–,inactive,inactive,inactive,inactive,20
C[C@H]1CC[C@@]2(OC1)OC1C[C@H]3[C@@H]4CC=C5C[C@@H](O)C[C@@H](O[C@@H]6OC[C@H](O)[C@H](O[C@@H]7OC[C@@H](O)[C@H](O)[C@H]7O)[C@H]6O)[C@]5(C)[C@H]4CC[C@]3(C)[C@H]1[C@@H]2C (stereo partly specified) [ANGUDRACANOSIDE F],–,inactive,inactive,inactive,inactive,9.5
C=C1CC[C@@]2(OC1)OC1C[C@H]3[C@@H]4[C@@H](O)C=C5C[C@@H](O)C[C@@H](O[C@@H]6OC[C@H](OS(=O)(=O)O)[C@H](O)[C@H]6O[C@@H]6O[C@@H](C)[C@H](O)[C@@H](O)[C@H]6O)[C@]5(C)[C@H]4CC[C@]3(C)[C@H]1[C@@H]2C (stereo partly specified),inactive,inactive,inactive,inactive,inactive,–
C=C1CO[C@]2(C[C@H]1O)OC1C[C@H]3[C@@H]4CC=C5C[C@@H](O)C[C@@H](O[C@@H]6OC[C@H](OS(=O)(=O)O)[C@H](O)[C@H]6O[C@@H]6O[C@@H](C)[C@H](O)[C@@H](O)[C@H]6O)[C@]5(C)[C@H]4CC[C@]3(C)[C@H]1[C@@H]2C (stereo partly specified),inactive,inactive,inactive,inactive,inactive,–
C[C@H]1CC[C@@]2(OC1)OC1C[C@H]3[C@@H]4C(=O)C=C5C[C@@H](O)C[C@@H](O[C@@H]6OC[C@H](OS(=O)(=O)O)[C@H](O)[C@H]6O[C@@H]6O[C@@H](C)[C@H](O)[C@@H](O)[C@H]6O)[C@]5(C)[C@H]4CC[C@]3(C)[C@H]1[C@@H]2C (stereo partly specified),inactive,inactive,inactive,inactive,inactive,–
C[C@@H]1[C@H](O)[C@@H](C)/C=C/C=C/C=C/C=C/C=C/C=C/C=C/[C@H](O[C@@H]2O[C@H](C)[C@@H](O)[C@H](N)[C@@H]2O)C[C@@H]2O[C@](O)(C[C@@H](O)C[C@@H](O)[C@H](O)CC[C@@H](O)C[C@@H](O)CC(=O)O[C@H]1C)C[C@H](O)[C@H]2C(=O)O [AMPHOTERICIN B],–,–,–,–,–,2.5
